Results as given in patent publication US20040077092A1, “Control and calibration material for blood coagulation tests” (priority 2002, published 2004).

Tests used:
Assay type in all cases: biochemical
[1] = tested on: control plasma "PreClot I/II"; assay: aPTT (activated partial thromboplastin time), PTT a reagent, ball coagulometer KC10A
Method: Effect of the Inventive Prolongation Substances when Added to Control Plasmas to Monitor the Determination of aPTT (activated partial thromboplastin time)
The control plasma “PreClot I/II” from Roche Diagnostics is rehydrated according to the instructions of the manufacturer with aqueous solutions in which 0%, 2.0%, 3.5% and 5.0% N-methyl urea (in each case % by weight) are dissolved. The “PTT a reagent for the automated and manual determination of the activated partial thromboplastin time” from Roche Diagnostics is used to determine the clotting time in seconds in the control solutions obtained in this manner on a ball coagulometer KC10A from the Amelung Company (Germany).
The experimental protocol is the same as described in example 2a).
The only amendment was that the following concentrations of guanidine hydrochloride were added to the rehydration solution (in each case % by weight): 0%, 0.5% 1.0% and 1.5%.

[2] = tested on: lyophilized control plasma "ACT quality control CoaguChek Pro system level 1"; assay: Activated clotting time (ACT), ACT test cassettes of the CoaguChek Pro system
Method: Effect of the Prolongation Substances According to the Invention when Added to Control Plasmas to Monitor the Determination of the Activated Clotting Time (ACT)
The lyophilized control plasma “ACT quality control CoaguChek® Pro system level 1” from Roche Diagnostics was rehydrated with the supplied rehydration solution according to the instructions of the manufacturer. 0%, 0.25%, 0.5% and 0.75% guanidine hydrochloride (in each case % by weight) were added to these solutions.

[3] = tested on: Citrate plasma that was obtained from rabbits; assay: Prothrombin time test, CoaguChek Pro; prolongation substance added to plasma before lyophilization; conditions: lyophilized, rehydrated with distilled water, PT
Method: Production and Use of the Inventive Control and Calibration Material for the Product CoaguChek® Pro (test for determining the prothrombin time) from Roche Diagnostics
Effect of the Prolongation Substance when Added to Plasma for the Production of the Control and Calibration Material.
Citrate plasma that was obtained from rabbits was processed further as follows.
A portion of the citrate plasma is left untreated and filled in 3.0 ml portions into siliconized vessels and lyophilized. The remainder of the plasma is used to produce preparations to which 2.0%, 3.5% and 5.0% urea (in each case % by weight) is added in each case to the plasma as the prolongation substance. These mixtures are also filled in 3.0 ml portions and lyophilized.
After rehydration of the individual preparations with distilled water, the samples obtained in this manner are added dropwise to test cards of the CoaguChek® Pro from Roche Diagnostics and the seconds which elapse until the onset of coagulation is determined on the accompanying measuring instrument CoaguChek® Pro.

[4] = tested on: Commercial control material level 1 for the CoaguChek system; assay: Prothrombin time test, CoaguChek system; prolongation substance in the rehydration solution; conditions: PT
From the text: Effect of the Prolongation Substance when Added to the Rehydration Solution
[…] These solutions are subsequently measured with the CoaguChek® system (test plus measuring instrument).

[5] = 0.5 % by weight guanidine in the rehydration solution

For `CNC(N)=O` [N-methyl-urea], the “time until the onset of coagulation” value ([1]; 2.0 % by weight N-methyl-urea in the rehydration solution) was 34.0 s, the “time until the onset of coagulation” value ([1]; 3.5 % by weight N-methyl-urea in the rehydration solution) was 38.6 s and the “time until the onset of coagulation” value ([1]; 5.0 % by weight N-methyl-urea in the rehydration solution) was 44.0 s.
For `Cl.N=C(N)N` [guanidine, guanidine hydrochloride], the “time until the onset of coagulation” value [1, 5] was 33.1 s, the “time until the onset of coagulation” value ([1]; 1.0 % by weight guanidine in the rehydration solution) was 41.9 s and the “time until the onset of coagulation” value ([1]; 1.5 % by weight guanidine in the rehydration solution) was 51.8 s. For the same compound, the “time until the onset of coagulation” value ([2]; 0.25 % by weight guanidine in the rehydration solution) was 175.6 s, the “time until the onset of coagulation” value [2, 5] was 223.4 s and the “time until the onset of coagulation” value ([2]; 0.75 % by weight guanidine in the rehydration solution) was 305.6 s.
With `NC(N)=O` [urea] the “time until the onset of coagulation” value ([3]; 2.0 % by weight urea added to rabbit citrate plasma) was 22.9 s, the “time until the onset of coagulation” value ([3]; 3.5 % by weight urea added to rabbit citrate plasma) was 29.6 s and the “time until the onset of coagulation” value ([3]; 5.0 % by weight urea added to rabbit citrate plasma) was 41.2 s. The “time until the onset of coagulation” value ([4]; 2.0 % by weight urea in the rehydration solution) was 19.3 s, the “time until the onset of coagulation” value ([4]; 3.0 % by weight urea in the rehydration solution) was 28.1 s and the “time until the onset of coagulation” value ([4]; 4.0 % by weight urea in the rehydration solution) was 32.2 s. The “time until the onset of coagulation” value ([4]; 5.0 % by weight urea in the rehydration solution) was 37.8 s.
